Source: patent publication US20200377561A1, “ANTIMICROBIAL PEPTIDES AND METHODS OF TREATING GRAM-NEGATIVE PATHOGEN INFECTIONS: POLAR AND NON-POLAR FACE ANALOGS” (THE REGENTS OF THE UNIVERSITY OF COLORADO, a body corporate, priority 2017, published 2020)
Like-named read-outs stand apart in the source and are kept apart here. Peptide text beside a SMILES is read from it.

Tests used:
[1] = test system: Acinetobacter baumannii NCTC 13420; type: cell-based
Procedure: (§1) Bacterial strains were acquired from the American Type Culture Collection (ATCC, Virginia, USA) and the National Collection of Type Cultures (NCTC, Public Health England, Salisbury, UK). Minimum Inhibitory Concentration (MIC) of peptides versus gram-negative strains-Acinetobacter baumannii NCTC 13420, and Pseudomonas aeruginosa ATCC 27853 and gram-positive strain Staphylococcus aureus ATCC 29213, were determined by broth microdilution as per the guidelines of the Clinical and Laboratory Standards Institute (“Methods for Dilution Antimicrobial Susceptibility Tests for Bacteria That Grow Aerobically”; Approved Standard-Ninth Edition. CLSI document M07-A9, 2012). Peptides were dissolved in sterile distilled water, which was also used as the drug-free vehicle control when determining peptide MICs. Prior to use in the MIC protocol, bacterial strains were grown on Mueller Hinton agar at 37° C. in an ambient atmosphere. […] A fixed inoculum of the test microorganism (5×10^5 cells/mL) is also added to the plate. The MIC is determined as the lowest concentration of compound that inhibits visible bacterial growth following incubation at 37° C. for 16-20 hours. A difference in MIC of two-fold between experimental replicates is considered to be within the normal variability of this protocol.

[2] = test system: Pseudomonas aeruginosa ATCC 27853; type: cell-based
Procedure: as §1

[3] = test system: Staphylococcus aureus ATCC 29213; type: cell-based
Procedure: as §1

Human erythrocytes = test: Haemolysis assay using human blood; type: cell-based
Procedure: To determine the extent of haemolytic activity (the ability to lyse red blood cells) in test peptides, a haemolysis assay was conducted using human blood (BioIVT, West Sussex, UK). Human erythrocytes were exposed to a single fixed concentration or a range of concentrations as to determine the % haemolysis (fixed concentration) or the concentration at which 50% haemolysis occurred (HC50), respectively. Prior to the assay, whole human blood was repeatedly washed in phosphate buffered saline (PBS) under cooled conditions to remove the buffy coat, plasma and cell debris. Washed erythrocytes were diluted as to achieve 1×10^8 cells/mL in PBS. Prepared human erythrocyte samples were combined with peptide at a single fixed concentration of 128 μg/mL, or a range of concentrations (two-fold dilution series) from 1000-31.25 μg/mL. Positive and negative controls containing 2% (v/v) Triton X-100 and PBS alone, respectively, were also prepared. Samples were incubated at 37° C. for 1 hour and then centrifuged to collect intact erythrocytes. Haemoglobin release was determined by recording the optical density of the supernatant at 540 nm. Optical density values were transformed to a percentage of the positive control. Results were recorded as a percentage haemolysis at 128 μg/mL, or by plotting the percentage haemolysis versus concentration and extrapolating the HC50 using linear regression analysis (Table 2 above)
The therapeutic index is a widely-accepted parameter to represent the specificity of antimicrobial peptides for prokaryotic versus eukaryotic cells. It is calculated by the ratio of hemolytic activity and antimicrobial activity (MIC) (Table 2 above); thus, larger values of therapeutic index indicate greater specificity for prokaryotic cells. With the peptides used in this study the inventors used the HC50/MIC ratio value to calculate the therapeutic index.

[4] = Peptide hydrophobicity by RP-HPLC retention; type: physicochemical; details: Zorbax SB-300 C8, 0.25% B/min from 10% B, 0.3 ml/min, 30° C.
Excerpt: Retention behavior in RP-HPLC is an excellent method to represent overall peptide hydrophobicity. Retention times of peptides are highly sensitive to the conformational status of the peptides upon interaction with the hydrophobic environment of the column matrix^17,26. The non-polar faces of amphipathic alpha-helical and amphipathic cyclic beta-sheet peptides represent a preferred binding domain for interaction with the hydrophobic matrix of the reversed-phase column^27. In this study, the observed peptide hydrophobicity was determined by RP-HPLC retention time as described below and are relative hydrophobicities because they are dependent on the TFA concentration and organic solvent in the mobile phase, gradient rate, temperature, flow rate and the column used. Analytical Purification by Reversed-phase Chromatography: Analytical RP-HPLC: Column: Zorbax SB-300 C8 (150×2.1 mm ID; 5-μm particle size; 300 Å pore size). Conditions: linear AB gradient (0.25% B/min from 10% B) at a flow-rate of 0.3 ml/min, where Eluent A is 0.2% aq. TFA and Eluent B is 0.18% TFA in acetonitrile; 30° C.

[5] = test system: Acinetobacter baumannii NCTC 13420; type: cell-based; details: CA-MHB supplemented with 20% human serum (v/v)
Procedure: Bacterial strains were acquired from the American Type Culture Collection (ATCC, Virginia, USA) and the National Collection of Type Cultures (NCTC, Public Health England, Salisbury, UK). Minimum Inhibitory Concentration (MIC) of peptides versus gram-negative strains-Acinetobacter baumannii NCTC 13420, and Pseudomonas aeruginosa ATCC 27853 and gram-positive strain Staphylococcus aureus ATCC 29213, were determined by broth microdilution as per the guidelines of the Clinical and Laboratory Standards Institute (“Methods for Dilution Antimicrobial Susceptibility Tests for Bacteria That Grow Aerobically”; Approved Standard-Ninth Edition. CLSI document M07-A9, 2012). Peptides were dissolved in sterile distilled water, which was also used as the drug-free vehicle control when determining peptide MICs. Prior to use in the MIC protocol, bacterial strains were grown on Mueller Hinton agar at 37° C. in an ambient atmosphere. […] A fixed inoculum of the test microorganism (5×10^5 cells/mL) is also added to the plate. The MIC is determined as the lowest concentration of compound that inhibits visible bacterial growth following incubation at 37° C. for 16-20 hours. A difference in MIC of two-fold between experimental replicates is considered to be within the normal variability of this protocol. […]

[6] = cation-adjusted Mueller Hinton broth, 37° C., 16-20 hours
[7] = human erythrocytes, 37° C., 1 hour

Structure (SMILES)	Antimicrobial Activity MIC A. baumannii NCTC13420 ([1]; NCTC 13420)	P. aeruginosa ATCC27853 MIC ([2]; ATCC 27853)	S. Aureus ATCC22213 MIC ([3]; ATCC 29213)	Haemolysis HC50 (Human erythrocytes; red cells of human, 1 h)	tR (relative hydrophobicity by RP-HPLC) [4]	Antimicrobial Activity MIC A. baumannii NCTC13420 [1, 6]	P. aeruginosa ATCC27853 MIC [2, 6]	S. Aureus ATCC22213 MIC [3, 6]	Antimicrobial Activity MIC A. baumannii NCTC13420 plus 20% SERUM [5]	Haemolysis HC50 (Human erythrocytes; [7])
CC(=O)N[C@H](CCCCN)C(=O)N[C@H](CC(C)C)C(=O)N[C@H](CCCCN)C(=O)N[C@H](CCCCN)C(=O)N[C@H](CC(C)C)C(=O)N[C@H](CC(C)C)C(=O)N[C@H](CCCCN)C(=O)N[C@H](CCCCN)C(=O)N[C@H](CC(C)C)C(=O)N[C@H](CO)C(=O)N[C@H](CO)C(=O)N[C@H](C)C(=O)N[C@H](CCCCN)C(=O)N[C@H](CO)C(=O)N[C@H](CO)C(=O)N[C@H](CCCCN)C(=O)N[C@H](CC(C)C)C(=O)N[C@H](CO)C(=O)N[C@@H](C(=O)N[C@H](CC(C)C)C(=O)N[C@H](CC(C)C)C(=O)N[C@H](CCCCN)C(=O)N[C@H](CCCCN)C(=O)N[C@H](CC(C)C)C(=O)N[C@H](CCCCN)C(=O)N[C@H](CCCCN)C(N)=O)[C@H](C)O [compound 3] (HELM PEPTIDE1{[ac].[dK].[dL].[dK].[dK].[dL].[dL].[dK].[dK].[dL].[dS].[dS].[dA].[dK].[dS].[dS].[dK].[dL].[dS].[dT].[dL].[dL].[dK].[dK].[dL].[dK].[dK].[am]}$$$$V2.0)	2 µg/mL	4 µg/mL	64 µg/mL	>2000 µg/mL	87.37 min	–	–	–	–	–
CC(=O)N[C@H](CCCCN)C(=O)N[C@H](CC(C)C)C(=O)N[C@H](CCCCN)C(=O)N[C@H](CCCCN)C(=O)N[C@H](CC(C)C)C(=O)N[C@H](CC(C)C)C(=O)N[C@H](CCCCN)C(=O)N[C@H](CCCCN)C(=O)N[C@H](CC(C)C)C(=O)N[C@H](CCCCN)C(=O)N[C@H](CO)C(=O)N[C@H](C)C(=O)N[C@H](CCCCN)C(=O)N[C@H](CO)C(=O)N[C@H](CO)C(=O)N[C@H](CCCCN)C(=O)N[C@H](CC(C)C)C(=O)N[C@H](CO)C(=O)N[C@@H](C(=O)N[C@H](CC(C)C)C(=O)N[C@H](CC(C)C)C(=O)N[C@H](CO)C(=O)N[C@H](CCCCN)C(=O)N[C@H](CC(C)C)C(=O)N[C@H](CCCCN)C(=O)N[C@H](CCCCN)C(N)=O)[C@H](C)O [compound 6] (HELM PEPTIDE1{[ac].[dK].[dL].[dK].[dK].[dL].[dL].[dK].[dK].[dL].[dK].[dS].[dA].[dK].[dS].[dS].[dK].[dL].[dS].[dT].[dL].[dL].[dS].[dK].[dL].[dK].[dK].[am]}$$$$V2.0)	2 µg/mL	2 µg/mL	128 µg/mL	>2000 µg/mL	–	–	–	–	–	–
CC(=O)N[C@H](CCCCN)C(=O)N[C@H](CC(C)C)C(=O)N[C@H](CCCCN)C(=O)N[C@H](CCCCN)C(=O)N[C@H](CC(C)C)C(=O)N[C@H](CC(C)C)C(=O)N[C@H](CCCCN)C(=O)N[C@H](CCCCN)C(=O)N[C@H](CC(C)C)C(=O)N[C@H](CO)C(=O)N[C@H](CO)C(=O)N[C@H](C)C(=O)N[C@H](CCCCN)C(=O)N[C@H](CO)C(=O)N[C@H](CO)C(=O)N[C@H](CCCCN)C(=O)N[C@H](CC(C)C)C(=O)N[C@H](CO)C(=O)N[C@H](CO)C(=O)N[C@H](CC(C)C)C(=O)N[C@H](CC(C)C)C(=O)N[C@H](CCCCN)C(=O)N[C@H](CCCCN)C(=O)N[C@H](CC(C)C)C(=O)N[C@H](CCCCN)C(=O)N[C@H](CCCCN)C(N)=O [compound 24] (HELM PEPTIDE1{[ac].[dK].[dL].[dK].[dK].[dL].[dL].[dK].[dK].[dL].[dS].[dS].[dA].[dK].[dS].[dS].[dK].[dL].[dS].[dS].[dL].[dL].[dK].[dK].[dL].[dK].[dK].[am]}$$$$V2.0)	–	–	–	–	–	1 µg/mL	2 µg/mL	64 µg/mL	2 µg/mL	>2000 µg/mL
CC(=O)N[C@H](C)C(=O)N[C@H](CC(C)C)C(=O)N[C@H](CCCCN)C(=O)N[C@H](CCCCN)C(=O)N[C@H](CC(C)C)C(=O)N[C@H](CC(C)C)C(=O)N[C@H](CCCCN)C(=O)N[C@H](CCCCN)C(=O)N[C@H](CC(C)C)C(=O)N[C@H](CO)C(=O)N[C@H](CO)C(=O)N[C@H](C)C(=O)N[C@H](CCCCN)C(=O)N[C@H](CO)C(=O)N[C@H](CO)C(=O)N[C@H](CCCCN)C(=O)N[C@H](CC(C)C)C(=O)N[C@H](CO)C(=O)N[C@H](CO)C(=O)N[C@H](CC(C)C)C(=O)N[C@H](CC(C)C)C(=O)N[C@H](CCCCN)C(=O)N[C@H](CCCCN)C(=O)N[C@H](CC(C)C)C(=O)N[C@H](CCCCN)C(=O)N[C@H](CCCCN)C(N)=O [compound 25] (HELM PEPTIDE1{[ac].[dA].[dL].[dK].[dK].[dL].[dL].[dK].[dK].[dL].[dS].[dS].[dA].[dK].[dS].[dS].[dK].[dL].[dS].[dS].[dL].[dL].[dK].[dK].[dL].[dK].[dK].[am]}$$$$V2.0)	–	–	–	–	–	2 µg/mL	4 µg/mL	128 µg/mL	4 µg/mL	>2000 µg/mL
